Experiments:
15-LOX = target: T1, 15-LOX (Glycine max, UniProt P08170); assay: In vitro 15-LOX inhibition (Lipoxygenase Inhibitor Screening assay Kit 760700, Cayman); assay type: biochemical; conditions: mean of six values ± standard deviation
T1 construct: purchased Cayman Chemical 760,700
T1 sequence (P08170 1-839): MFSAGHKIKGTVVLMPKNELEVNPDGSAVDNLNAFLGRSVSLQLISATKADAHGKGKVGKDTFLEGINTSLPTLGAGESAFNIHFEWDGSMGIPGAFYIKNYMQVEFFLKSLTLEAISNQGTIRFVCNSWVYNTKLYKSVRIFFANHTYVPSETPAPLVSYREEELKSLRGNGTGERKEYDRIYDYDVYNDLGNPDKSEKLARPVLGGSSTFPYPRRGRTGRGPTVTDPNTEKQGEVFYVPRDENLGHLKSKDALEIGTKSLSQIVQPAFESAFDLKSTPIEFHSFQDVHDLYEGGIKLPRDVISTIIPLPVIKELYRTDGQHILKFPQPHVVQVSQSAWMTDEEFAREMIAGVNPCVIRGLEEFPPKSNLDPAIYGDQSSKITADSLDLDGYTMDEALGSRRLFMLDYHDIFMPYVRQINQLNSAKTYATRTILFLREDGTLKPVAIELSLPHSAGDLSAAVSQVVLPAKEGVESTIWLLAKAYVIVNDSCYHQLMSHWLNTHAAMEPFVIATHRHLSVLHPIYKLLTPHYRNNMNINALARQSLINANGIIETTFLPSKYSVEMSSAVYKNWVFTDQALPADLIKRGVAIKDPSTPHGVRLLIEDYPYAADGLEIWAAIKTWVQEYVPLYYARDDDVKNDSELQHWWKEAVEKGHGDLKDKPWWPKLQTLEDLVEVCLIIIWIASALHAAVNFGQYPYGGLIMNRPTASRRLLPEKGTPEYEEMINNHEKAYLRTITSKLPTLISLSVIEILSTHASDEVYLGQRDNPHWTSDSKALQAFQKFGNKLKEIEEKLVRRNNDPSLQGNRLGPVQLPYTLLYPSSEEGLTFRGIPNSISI
Description: 15-LOX inhibitor screening protocol: Blank wells: 100 µl of assay buffer was added to at least two wells, Positive control wells: 90 µl of 15-LOX standard was added to 10 µl of assay buffer to at least two wells, 100% initial activity wells: 90 µl of Lipoxygenase enzyme was added to 10 µl of solvent to at least two wells, Inhibitor wells: 90 µl of Lipoxygenase enzyme was added to 10 µl of inhibitor wells to. It was incubated for five minutes at room temperature. The reaction was initiated by adding 10 µl of substrate to all the wells. 96well-plates were placed on a shaker for at least 10 min. 100 µl of chromogen was added to each well to stop the enzyme catalysis. The reaction was covered with plate cover. 96well-plates were placed on a shaker for at least 5 min. The cover was removed and absorbance was read using plate reader at absorbance 490–500 nm.

TNF-α = TNF-α production in LPS-activated RAW 264.7 macrophages (ELISA); conditions: Mus musculus, RAW264.7, read-out: TNF-α IC50
COX-2 = target: T2, COX-2 (Homo sapiens, UniProt P35354); assay: In vitro COX-2 inhibition (COX-2 Inhibitor Screening Kit-K547, Biovision); assay type: biochemical; conditions: for IC50: mean of six values ± standard deviation
T2 construct: purchased Biovision K547
T2 sequence (P35354 18-604): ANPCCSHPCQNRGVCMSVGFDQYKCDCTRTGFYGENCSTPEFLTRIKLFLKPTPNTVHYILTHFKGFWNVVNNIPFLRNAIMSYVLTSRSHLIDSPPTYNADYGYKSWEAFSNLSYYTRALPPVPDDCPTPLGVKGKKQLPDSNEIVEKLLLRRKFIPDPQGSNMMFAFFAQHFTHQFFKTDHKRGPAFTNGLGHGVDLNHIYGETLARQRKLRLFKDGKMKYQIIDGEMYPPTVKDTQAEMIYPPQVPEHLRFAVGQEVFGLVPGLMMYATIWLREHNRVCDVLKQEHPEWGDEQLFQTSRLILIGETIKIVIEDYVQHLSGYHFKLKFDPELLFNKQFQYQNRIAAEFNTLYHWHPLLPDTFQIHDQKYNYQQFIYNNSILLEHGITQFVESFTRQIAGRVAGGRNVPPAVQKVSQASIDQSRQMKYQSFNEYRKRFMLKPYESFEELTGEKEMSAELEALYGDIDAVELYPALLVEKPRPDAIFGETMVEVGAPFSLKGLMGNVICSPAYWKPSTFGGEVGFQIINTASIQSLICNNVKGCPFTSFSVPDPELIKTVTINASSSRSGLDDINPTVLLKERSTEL
Description: The IC50 value of the tested compounds was determined.
COX-2 inhibitor Screening Protocol: Dissolve the tested compounds in DMSO. Use COX Assay Buffer to dilute the relevant test concentration by 10X before using. Place 10 µl of diluted test inhibitor or Assay Buffer in the specified wells instead of the sample screen (S) or enzyme control (EC; no inhibitor). […] Before using, combine 2 µl of COX Cofactor with 398 µl of COX Assay Buffer to dilute COX Cofactor 200 times. Blend thoroughly. Just before using, mix 5 µl of the provided arachidonic acid with 5 µl of NaOH to make the arachidonic acid solution. Combine quickly using a vortex. To dilute the arachidonic acid/NaOH solution 10 times, add 90 µl of water. There should be 80 µl of reaction mix in each well. Using a multi-channel pipette, add 10 µl of diluted arachidonic acid/NaOH solution into each well to initiate the reactions concurrently.

[1] = test system: carrageenan-induced rat paw edema; assay: Carrageenan-induced rat paw edema assay; assay type: in vivo
MTS cytotoxicity assay = assay type: cell-based; conditions: mouse, RAW 264.7 macrophages (heading: LPS-induced), read-out: Cytotoxicity IC50 (LPS-induced RAW 264.7 cells)
Description: Using Dulbecco’s Modified Eagle Medium (DMEM, Biowest L0060) supplemented with 10% foetal bovine serum (FBS) (Biowest, S1810) and 1% anti-biotic and anti-mycotic (Biowest, L0010-100), the RAW264.7 macrophage cell line (ATCC ® TIB-71TM) was cultivated. The cells were then incubated at 37 °C with 5% CO2 until they were confluent, which should be between 70 and 80%. After two to three days, the growth media was regularly changed. Trypsin–EDTA was then used to wash and collect the cells (Biowest, L0931-500).
The MTS (3-(4,5-dimethylthiazol-2-yl)-5-(3-carboxymethoxy-phenyl)-2-(4-sulfophenyl)-2H-tetrazolium) test (Promega, ab197010) was used to determine cell viability. In short, a 96-well plate was seeded with 5 × 10^3 cells per well, and the cells were then incubated for 24 h at 37 °C and 5% CO2. The cells were then re-incubated for 24 h at 37 °C and 5% CO2 after the medium was discarded and replaced with 180 µl of fresh growth media and 20 µl of sample (1000 ug, 250 ug, 63 ug, 16 ug, and 4 ug µg/mL). 20 µl of MTS was then added to each well, and the mixture was incubated for three hours at 37 °C with 5% CO2. […] Control cells were those that received no treatment.

CCOC(=O)COc1ccc(C2=NN(c3ccc(S(C)(=O)=O)cc3)C(c3ccc(Br)cc3)C2)cc1 (stereo not shown) [Compound 15 h, Ethyl 2-(4-(5-(4-bromophenyl)-1-(4-(methylsulfonyl)phenyl)-4,5-dihydro-1H-pyrazol-3-yl)phenoxy)acetate]
IC50 (15-LOX): 488 ± 19 nM
IC50 (TNF-α): 1040 ± 42 nM
IC50 (COX-2): 103 ± 3 nM
% inhibition (edema) ([1]; 10 mg/kg): 19.49%
% inhibition (edema) ([1]; 25 mg/kg): 37.98%
IC50 at 24 h (MTS cytotoxicity assay): 179 ± 6.37 µM

CCOC(=O)COc1ccc(C2=NN(c3ccc(S(C)(=O)=O)cc3)C(c3ccc(OC)cc3)C2)cc1 (stereo not shown) [Compound 15c, Ethyl 2-(4-(5-(4-methoxyphenyl)-1-(4-(methylsulfonyl)phenyl)-4,5-dihydro-1H-pyrazol-3-yl)phenoxy)acetate]
IC50 (15-LOX): 412 ± 16 nM
IC50 (TNF-α): 770 ± 25 nM
COX-2 S.I. (COX-2; COX-1 IC50/COX-2 IC50): 28.56
IC50 (COX-2): 397 ± 13 nM
% inhibition (edema) ([1]; 10 mg/kg): 22.32%
% inhibition (edema) ([1]; 25 mg/kg): 31.51%
IC50 at 24 h (MTS cytotoxicity assay): 301 ± 10.7 µM

CCOC(=O)COc1ccc(C2=NN(c3ccc(S(C)(=O)=O)cc3)C(c3cc(OC)c(OC)c(OC)c3)C2)cc1 (stereo not shown) [Compound 15d, Ethyl 2-(4-(1-(4-(methylsulfonyl)phenyl)-5-(3,4,5-trimethoxyphenyl)-4,5-dihydro-1H-pyrazol-3-yl)phenoxy)acetate]
IC50 (15-LOX): 2230 ± 87 nM
IC50 (TNF-α): 1200 ± 60 nM
IC50 (COX-2): 221 ± 7 nM
% inhibition (edema) ([1]; 10 mg/kg): 29.52%
% inhibition (edema) ([1]; 25 mg/kg): 36.61%
IC50 at 24 h (MTS cytotoxicity assay): 183 ± 6.52 µM

Source: publication PMC12926254, “Novel pyrazole carboxylate derivatives as lonazolac bioisosteres with selective COX-2 inhibition: design, synthesis and anti-inflammatory activity” (Molecular Diversity, 2025)
